Data: ChEMBL document CHEMBL1201862, “PubChem BioAssay data set” (2004)
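1) Cells in 96-well plates. 2) Compound, 48 h, 5 concentrations. 3) Linear interpolation between surrounding doses. 4) Unreached endpoint = highest concentration. GI50 is the concentration that inhibits growth by half.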 Active and inactive are the calls of the source. Cut-off read from the data, not from the text of the source: active = GI50 up to about 1.1 µM and inactive = higher.

Tests used:
Assay in all cases: inhibition of tumour cell growth, NCI panel, 48 h
HCT-15 = tested on: HCT-15
HOP-62 = tested on: HOP-62
SF-295 = tested on: SF-295
A498 = tested on: A498
MOLT-4 = tested on: MOLT-4
MDA-N = tested on: MDA-N
NCI/ADR-RES = tested on: NCI/ADR-RES
TK-10 = tested on: TK-10
OVCAR-4 = tested on: OVCAR-4
786-0 = tested on: 786-0
SF-268 = tested on: SF-268
SK-MEL-28 = tested on: SK-MEL-28
Hs-578T = tested on: Hs-578T
A549 = tested on: A549
EKVX = tested on: EKVX
MDA-MB-435 = tested on: MDA-MB-435
U-251 = tested on: U-251
M14 = tested on: M14
CAKI-1 = tested on: CAKI-1
NCI-H522 = tested on: NCI-H522
SW-620 = tested on: SW-620
SR = tested on: SR
OVCAR-3 = tested on: OVCAR-3
SF-539 = tested on: SF-539
SNB-75 = tested on: SNB-75
PC-3 = tested on: PC-3
OVCAR-8 = tested on: OVCAR-8
CCRF-CEM = tested on: CCRF-CEM
SN12C = tested on: SN12C
HCT-116 = tested on: HCT-116
UACC-257 = tested on: UACC-257
OVCAR-5 = tested on: OVCAR-5
NCI-H23 = tested on: NCI-H23
SK-MEL-2 = tested on: SK-MEL-2
UO-31 = tested on: UO-31
NCI-H460 = tested on: NCI-H460
ACHN = tested on: ACHN
HCC 2998 = tested on: HCC 2998
MCF7 = tested on: MCF7
SNB-19 = tested on: SNB-19
RXF 393 = tested on: RXF 393
HL-60 = tested on: HL-60
SK-OV-3 = tested on: SK-OV-3
MDA-MB-231 = tested on: MDA-MB-231
HT-29 = tested on: HT-29
K562 = tested on: K562
KM12 = tested on: KM12
RPMI-8226 = tested on: RPMI-8226
NCI-H226 = tested on: NCI-H226
LOX IMVI = tested on: LOX IMVI
HOP-92 = tested on: HOP-92
BT-549 = tested on: BT-549
IGROV-1 = tested on: IGROV-1
UACC-62 = tested on: UACC-62
Malme-3M = tested on: Malme-3M
DU-145 = tested on: DU-145
COLO 205 = tested on: COLO 205
SK-MEL-5 = tested on: SK-MEL-5

Structure (SMILES): CC(C)=CCC[C@]1(C)C=Cc2c(O)c3c(c(CC=C(C)C)c2O1)O[C@]12C(=C[C@@H]4CC1C(C)(C)O[C@@]2(C/C=C(/C)C(=O)O)C4=O)C3=O
- GI50 (HCT-15): 0.813 µM
- GI50 (HOP-62): 1.69 µM (inactive)
- GI50 (SF-295): 2.3 µM (inactive)
- GI50 (A498): 1.73 µM (inactive)
- GI50 (MOLT-4): 0.305 µM (active)
- GI50 (MDA-N): 0.47 µM (active)
- GI50 (NCI/ADR-RES): 1.92 µM (inactive)
- GI50 (TK-10): 0.861 µM (active)
- GI50 (OVCAR-4): 2.38 µM (inactive)
- GI50 (786-0): 0.488 µM (active)
- GI50 (SF-268): 1.45 µM (inactive)
- GI50 (SK-MEL-28): 1.28 µM (inactive)
- GI50 (Hs-578T): 0.673 µM (active)
- GI50 (A549): 0.863 µM (active)
- GI50 (EKVX): 1.67 µM (inactive)
- GI50 (MDA-MB-435): 1.03 µM (active)
- GI50 (U-251): 0.676 µM (active)
- GI50 (M14): 1.57 µM (inactive)
- GI50 (CAKI-1): 0.973 µM (active)
- GI50 (NCI-H522): 0.406 µM (active)
- GI50 (SW-620): 0.452 µM (active)
- GI50 (SR): 0.317 µM (active)
- GI50 (OVCAR-3): 1.38 µM (inactive)
- GI50 (SF-539): 0.206 µM (active)
- GI50 (SNB-75): 1.63 µM (inactive)
- GI50 (PC-3): 0.802 µM (active)
- GI50 (OVCAR-8): 0.643 µM (active)
- GI50 (CCRF-CEM): 0.273 µM (active)
- GI50 (SN12C): 0.719 µM (active)
- GI50 (HCT-116): 0.256 µM (active)
- GI50 (UACC-257): 2.31 µM (inactive)
- GI50 (OVCAR-5): 1.5 µM (inactive)
- GI50 (NCI-H23): 0.938 µM (active)
- GI50 (SK-MEL-2): 2.02 µM (inactive)
- GI50 (UO-31): 1.33 µM (inactive)
- GI50 (NCI-H460): 1.24 µM (inactive)
- GI50 (ACHN): 0.419 µM (active)
- GI50 (HCC 2998): 1.34 µM (inactive)
- GI50 (MCF7): 0.376 µM (active)
- GI50 (SNB-19): 2.12 µM (inactive)
- GI50 (RXF 393): 0.5 µM (active)
- GI50 (HL-60): 0.285 µM (active)
- GI50 (SK-OV-3): 3.01 µM (inactive)
- GI50 (MDA-MB-231): 1.07 µM (active)
- GI50 (HT-29): 0.461 µM (active)
- GI50 (K562): 0.676 µM (active)
- GI50 (KM12): 1.02 µM (active)
- GI50 (RPMI-8226): 0.368 µM (active)
- GI50 (NCI-H226): 0.774 µM (active)
- GI50 (LOX IMVI): 0.442 µM (active)
- GI50 (HOP-92): 1.78 µM (inactive)
- GI50 (BT-549): 1.91 µM (inactive)
- GI50 (IGROV-1): 1.43 µM (inactive)
- GI50 (UACC-62): 1.73 µM (inactive)
- GI50 (Malme-3M): 1.19 µM (inactive)

Structure (SMILES): Cc1n[nH]c(=O)n1/N=C\c1ccccc1
- GI50 (HCT-15): > 100 µM
- GI50 (HOP-62): > 100 µM (inactive)
- GI50 (SF-295): 59.2 µM (inactive)
- GI50 (A498): > 100 µM (inactive)
- GI50 (MOLT-4): > 100 µM (inactive)
- GI50 (MDA-N): > 100 µM (inactive)
- GI50 (NCI/ADR-RES): > 100 µM (inactive)
- GI50 (TK-10): > 100 µM (inactive)
- GI50 (OVCAR-4): > 100 µM (inactive)
- GI50 (786-0): > 100 µM (inactive)
- GI50 (SF-268): 0.0855 µM (active)
- GI50 (SK-MEL-28): > 100 µM (inactive)
- GI50 (Hs-578T): > 100 µM (inactive)
- GI50 (DU-145): > 100 µM (inactive)
- GI50 (A549): > 100 µM (inactive)
- GI50 (EKVX): > 100 µM (inactive)
- GI50 (MDA-MB-435): > 100 µM (inactive)
- GI50 (U-251): > 100 µM (inactive)
- GI50 (CAKI-1): > 100 µM (inactive)
- GI50 (NCI-H522): > 100 µM (inactive)
- GI50 (SW-620): > 100 µM (inactive)
- GI50 (SR): > 100 µM (inactive)
- GI50 (OVCAR-3): > 100 µM (inactive)
- GI50 (SF-539): > 100 µM (inactive)
- GI50 (PC-3): > 100 µM (inactive)
- GI50 (OVCAR-8): > 100 µM (inactive)
- GI50 (CCRF-CEM): > 100 µM (inactive)
- GI50 (SN12C): > 100 µM (inactive)
- GI50 (HCT-116): > 100 µM (inactive)
- GI50 (UACC-257): > 100 µM (inactive)
- GI50 (OVCAR-5): > 100 µM (inactive)
- GI50 (NCI-H23): > 100 µM (inactive)
- GI50 (SK-MEL-2): 83.9 µM (inactive)
- GI50 (UO-31): > 100 µM (inactive)
- GI50 (NCI-H460): > 100 µM (inactive)
- GI50 (ACHN): > 100 µM (inactive)
- GI50 (HCC 2998): > 100 µM (inactive)
- GI50 (COLO 205): > 100 µM (inactive)
- GI50 (MCF7): > 100 µM (inactive)
- GI50 (RXF 393): < 0.01 µM (active)
- GI50 (HL-60): > 100 µM (inactive)
- GI50 (SK-MEL-5): > 100 µM (inactive)
- GI50 (MDA-MB-231): > 100 µM (inactive)
- GI50 (HT-29): > 100 µM (inactive)
- GI50 (K562): > 100 µM (inactive)
- GI50 (KM12): > 100 µM (inactive)
- GI50 (RPMI-8226): > 100 µM (inactive)
- GI50 (NCI-H226): > 100 µM (inactive)
- GI50 (LOX IMVI): > 100 µM (inactive)
- GI50 (BT-549): > 100 µM (inactive)
- GI50 (IGROV-1): > 100 µM (inactive)
- GI50 (UACC-62): > 100 µM (inactive)
- GI50 (Malme-3M): > 100 µM (inactive)
